Source: article PMC3961306, “Comparison of the Cancer Gene Targeting and Biochemical Selectivities of All Targeted Kinase Inhibitors Approved for Clinical Use” (PLoS ONE, 2014)

What was measured:
Assay in all cases: Kinase profiling in a biochemical assay panel (mobility shift assays and ELISA), %-inhibition at 1 μM; selectivity entropy
[1] = target: T1, panel of more than 300 wild-type and mutant kinases (313 kinase panel) (Homo sapiens, UniProt P21709)
T1 sequence (P21709 26-976): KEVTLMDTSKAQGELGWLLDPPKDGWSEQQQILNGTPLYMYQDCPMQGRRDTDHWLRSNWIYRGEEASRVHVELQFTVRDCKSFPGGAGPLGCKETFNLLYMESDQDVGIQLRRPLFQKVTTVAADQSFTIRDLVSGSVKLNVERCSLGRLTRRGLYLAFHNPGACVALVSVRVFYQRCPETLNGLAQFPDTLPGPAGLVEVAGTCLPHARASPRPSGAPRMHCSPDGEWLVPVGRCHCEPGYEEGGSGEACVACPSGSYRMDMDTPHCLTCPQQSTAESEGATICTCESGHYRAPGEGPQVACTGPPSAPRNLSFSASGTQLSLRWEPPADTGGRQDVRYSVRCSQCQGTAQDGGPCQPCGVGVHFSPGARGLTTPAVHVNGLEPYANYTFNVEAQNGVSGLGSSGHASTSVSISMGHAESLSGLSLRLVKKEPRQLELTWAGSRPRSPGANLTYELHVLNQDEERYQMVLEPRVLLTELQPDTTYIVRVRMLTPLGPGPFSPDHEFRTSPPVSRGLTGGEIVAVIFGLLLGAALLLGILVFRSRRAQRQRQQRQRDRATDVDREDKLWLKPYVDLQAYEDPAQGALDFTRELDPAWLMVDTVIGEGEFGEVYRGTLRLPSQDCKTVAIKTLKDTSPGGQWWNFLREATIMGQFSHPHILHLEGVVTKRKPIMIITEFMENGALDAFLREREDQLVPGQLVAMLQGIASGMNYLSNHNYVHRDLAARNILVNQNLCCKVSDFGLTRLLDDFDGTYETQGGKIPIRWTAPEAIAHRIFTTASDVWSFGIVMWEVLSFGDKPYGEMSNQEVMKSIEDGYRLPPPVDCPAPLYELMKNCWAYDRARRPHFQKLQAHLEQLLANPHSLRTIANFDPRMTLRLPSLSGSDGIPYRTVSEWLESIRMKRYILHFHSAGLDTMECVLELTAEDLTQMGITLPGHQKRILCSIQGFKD

[2] = target: panel of more than 300 wild-type and mutant kinases (313 kinase panel) (Homo sapiens, UniProt Q00534)
[3] = target: T2, panel of more than 300 wild-type and mutant kinases (313 kinase panel) (Homo sapiens, UniProt Q13470)
T2 sequence (Q13470 1-666): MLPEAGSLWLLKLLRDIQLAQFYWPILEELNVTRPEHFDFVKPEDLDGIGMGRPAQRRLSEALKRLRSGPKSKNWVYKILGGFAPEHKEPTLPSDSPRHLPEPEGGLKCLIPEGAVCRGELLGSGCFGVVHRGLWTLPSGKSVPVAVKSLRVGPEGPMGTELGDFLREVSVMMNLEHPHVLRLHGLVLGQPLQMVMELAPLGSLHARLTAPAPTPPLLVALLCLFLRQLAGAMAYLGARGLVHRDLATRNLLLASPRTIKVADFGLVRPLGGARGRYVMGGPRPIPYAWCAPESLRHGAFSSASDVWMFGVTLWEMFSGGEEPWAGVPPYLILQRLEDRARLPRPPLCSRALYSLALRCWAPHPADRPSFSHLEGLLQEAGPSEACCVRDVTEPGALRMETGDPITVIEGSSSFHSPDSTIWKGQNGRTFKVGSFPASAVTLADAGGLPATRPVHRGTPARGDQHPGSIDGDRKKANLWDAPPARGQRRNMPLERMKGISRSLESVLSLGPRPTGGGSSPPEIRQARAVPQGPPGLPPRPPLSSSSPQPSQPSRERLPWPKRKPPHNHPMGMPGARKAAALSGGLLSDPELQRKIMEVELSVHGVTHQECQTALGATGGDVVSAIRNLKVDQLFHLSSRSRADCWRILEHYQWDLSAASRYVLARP

[4] = target: T3, panel of more than 300 wild-type and mutant kinases (313 kinase panel) (Homo sapiens, UniProt P33981)
T3 sequence (P33981 1-857): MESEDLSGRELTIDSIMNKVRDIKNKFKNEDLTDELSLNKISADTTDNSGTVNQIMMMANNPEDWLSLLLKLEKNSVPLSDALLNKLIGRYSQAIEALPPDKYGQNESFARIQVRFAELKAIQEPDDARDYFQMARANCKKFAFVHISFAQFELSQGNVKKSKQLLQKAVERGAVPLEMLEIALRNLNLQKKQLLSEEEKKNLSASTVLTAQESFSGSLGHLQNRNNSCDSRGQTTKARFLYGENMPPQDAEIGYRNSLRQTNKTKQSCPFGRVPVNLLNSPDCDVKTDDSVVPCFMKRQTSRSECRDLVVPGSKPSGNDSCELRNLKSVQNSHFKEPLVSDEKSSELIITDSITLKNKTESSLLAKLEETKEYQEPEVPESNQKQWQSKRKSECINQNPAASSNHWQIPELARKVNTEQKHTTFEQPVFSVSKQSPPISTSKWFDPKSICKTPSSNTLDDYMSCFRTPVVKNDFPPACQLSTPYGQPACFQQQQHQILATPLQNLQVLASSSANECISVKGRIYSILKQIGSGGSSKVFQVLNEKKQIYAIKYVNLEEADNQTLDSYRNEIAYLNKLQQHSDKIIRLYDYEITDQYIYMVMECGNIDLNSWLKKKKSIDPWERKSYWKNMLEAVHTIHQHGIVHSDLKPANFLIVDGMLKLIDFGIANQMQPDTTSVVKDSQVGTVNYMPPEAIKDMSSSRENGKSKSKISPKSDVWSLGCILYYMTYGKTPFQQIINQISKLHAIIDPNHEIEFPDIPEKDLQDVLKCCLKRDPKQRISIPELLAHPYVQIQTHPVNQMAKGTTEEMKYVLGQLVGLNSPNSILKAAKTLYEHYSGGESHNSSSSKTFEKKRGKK

[5] = kinase CDK6/CycD3, 1 μM compound

| SMILES | %-inhibition of EPHA1 ([1]; kinase EPHA1, compound at 1 μM) [%] | %-inhibition, CDK6/CycD3 [2, 5] [%] | %-inhibition of TNK1 ([3]; kinase TNK1, 1 μM) [%] | %-inhibition of TTK ([4]; kinase TTK, compound at 1 μM) [%] | %-inhibition of EPHA1 ([1]; 1 µM) [%] | %-inhibition of TTK ([4]; 1 µM) [%] | %-inhibition, CDK6/CycD3 ([2]; 1 µM) [%] | %-inhibition of TNK1 ([3]; 1 µM) [%] |
| --- | --- | --- | --- | --- | --- | --- | --- | --- |
| COc1cc(Nc2c(C#N)cnc3cc(OCCCN4CCN(C)CC4)c(OC)cc23)c(Cl)cc1Cl [bosutinib] | 3 | 0.0624 | 11 | – | – | – | – | – |
| COc1cc2nccc(Oc3ccc(NC(=O)C4(C(=O)Nc5ccc(F)cc5)CC4)cc3)c2cc1OC [cabozantinib] | 84 | 0.312 | 89 | 2.75 | – | – | – | – |
| C[C@@H](Oc1cc(-c2cnn(C3CCNCC3)c2)cnc1N)c1c(Cl)ccc(F)c1Cl [crizotinib] | 97 | 0.0624 | 41 | -9 | – | – | – | – |
| CC(C)(C)c1nc(-c2cccc(NS(=O)(=O)c3c(F)cccc3F)c2F)c(-c2ccnc(N)n2)s1 [dabrafenib] | 44 | – | 100 | -22 | – | – | – | – |
| Cc1nc(Nc2ncc(C(=O)Nc3c(C)cccc3Cl)s2)cc(N2CCN(CCO)CC2)n1 [dasatinib] | 101 | 9 | 4.31 | – | – | – | – | – |
| C#Cc1cccc(Nc2ncnc3cc(OCCOC)c(OCCOC)cc23)c1 [erlotinib] | – | – | – | – | 28 | 6.42 | 9 | 44 |
| CO[C@H]1C[C@@H]2CC[C@@H](C)[C@@](O)(O2)C(=O)C(=O)N2CCCC[C@H]2C(=O)O[C@H]([C@H](C)C[C@@H]2CC[C@@H](OCCO)[C@H](OC)C2)CC(=O)[C@H](C)/C=C(\C)[C@@H](O)[C@@H](OC)C(=O)[C@H](C)C[C@H](C)/C=C/C=C/C=C/1C [everolimus] | -10 | -3 | -0.4 | -2.68 | – | – | – | – |
| O=S(=O)(c1cccc2cnccc12)N1CCCNCC1 [fasudil] | 0.43 | -5.68 | – | -11 | – | – | – | – |
| CS(=O)(=O)CCNCc1ccc(-c2ccc3ncnc(Nc4ccc(OCc5cccc(F)c5)c(Cl)c4)c3c2)o1 [lapatinib] | 6 | 5 | -8.45 | 0.257 | – | – | – | – |
| Cc1cn(-c2cc(NC(=O)c3ccc(C)c(Nc4nccc(-c5cccnc5)n4)c3)cc(C(F)(F)F)c2)cn1 [nilotinib] | 61 | -23 | – | -8 | – | – | – | -4 |
| Cc1ccc(Nc2nccc(N(C)c3ccc4c(C)n(C)nc4c3)n2)cc1S(N)(=O)=O [pazopanib] | 54 | 9 | 42 | 31 | – | – | – | – |
| Cc1ccc(C(=O)Nc2ccc(CN3CCN(C)CC3)c(C(F)(F)F)c2)cc1C#Cc1cnc2cccnn12 [ponatinib] | 97 | 25 | 100 | – | – | – | – | – |
| CNC(=O)c1cc(Oc2ccc(NC(=O)Nc3ccc(Cl)c(C(F)(F)F)c3)c(F)c2)ccn1 [regorafenib] | 55 | -1.31 | 47 | 0.186 | – | – | – | – |
| N#CC[C@H](C1CCCC1)n1cc(-c2ncnc3[nH]ccc23)cn1 [ruxolitinib] | 43 | -6 | 31 | 2 | – | – | – | – |
| CO[C@H]1C[C@@H]2CC[C@@H](C)[C@@](O)(O2)C(=O)C(=O)N2CCCC[C@H]2C(=O)O[C@H]([C@H](C)C[C@@H]2CC[C@@H](OC(=O)C(C)(CO)CO)[C@H](OC)C2)CC(=O)[C@H](C)/C=C(\C)[C@@H](O)[C@@H](OC)C(=O)[C@H](C)C[C@H](C)/C=C/C=C/C=C/1C [temsirolimus] | -15 | -3.18 | -3 | -22 | – | – | – | – |
| CC(=O)Nc1cccc(-n2c(=O)n(C3CC3)c(=O)c3c(Nc4ccc(I)cc4F)n(C)c(=O)c(C)c32)c1 [trametinib] | -1.61 | -4.23 | – | 59 | – | – | – | -2.58 |
| COc1cc2c(Nc3ccc(Br)cc3F)ncnc2cc1OCC1CCN(C)CC1 [vandetanib] | 99 | -1.19 | 23 | 3 | – | – | – | – |
| CCCS(=O)(=O)Nc1ccc(F)c(C(=O)c2c[nH]c3ncc(-c4ccc(Cl)cc4)cc23)c1F [vemurafenib] | -9 | 2.43 | 13 | -14 | – | – | – | – |
